From PubChem BioAssay AID602415 (The Scripps Research Institute Molecular Screening Center, 2012)
Calls of active or inactive are those of the source.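 The calls were made as follows: active = substrate turnover at or below 60%; inactive = substrate turnover above 60%.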

The compounds below were run against Diacylglycerol lipase-beta (Mus musculus) (UniProt Q91WC9) (assay: DAGLb inhibitors reducing SAG hydrolysis, biochemical, LC-MS, overexpressed mouse DAGLb (AID 602415)). Details: HEK293T membranes overexpressing mDAGLb, at 10 µM, stronger effect = lower value.
Diacylglycerol lipase-beta (Mus musculus), sequence (Q91WC9 whole entry, looked up): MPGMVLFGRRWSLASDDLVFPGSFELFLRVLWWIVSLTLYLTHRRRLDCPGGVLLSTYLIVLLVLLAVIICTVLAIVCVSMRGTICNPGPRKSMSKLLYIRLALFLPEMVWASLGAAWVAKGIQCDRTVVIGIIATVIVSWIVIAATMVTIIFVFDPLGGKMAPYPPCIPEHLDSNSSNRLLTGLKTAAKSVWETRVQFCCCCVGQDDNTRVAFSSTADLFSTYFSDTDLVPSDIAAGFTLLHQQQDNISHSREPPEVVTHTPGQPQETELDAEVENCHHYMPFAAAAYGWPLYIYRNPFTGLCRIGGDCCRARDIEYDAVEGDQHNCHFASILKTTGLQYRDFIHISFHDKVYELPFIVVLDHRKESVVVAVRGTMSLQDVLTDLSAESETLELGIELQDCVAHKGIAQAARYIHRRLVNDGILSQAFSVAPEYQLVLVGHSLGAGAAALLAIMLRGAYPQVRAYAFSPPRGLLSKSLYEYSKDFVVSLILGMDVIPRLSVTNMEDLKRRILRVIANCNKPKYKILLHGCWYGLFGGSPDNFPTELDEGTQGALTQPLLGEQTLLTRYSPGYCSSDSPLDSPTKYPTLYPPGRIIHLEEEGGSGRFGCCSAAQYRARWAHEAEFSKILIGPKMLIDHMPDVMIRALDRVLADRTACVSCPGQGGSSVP

Substrate turnover, inactive:
CCN(Cc1ccccc1)c1ccc(N=Nc2nn(C)c(C)c2[N+](=O)[O-])cc1 97%
Cc1ccc(Nc2nnc(SCc3nc4ccccc4c(=O)[nH]3)s2)cc1 87%
O=[N+]([O-])c1ccc(N2CCN(c3ccc(F)cc3)CC2)cc1 74%
